Source: publication PMC5384962, “First-in-human studies of seletalisib, an orally bioavailable small-molecule PI3Kδ inhibitor for the treatment of immune and inflammatory diseases” (European Journal of Clinical Pharmacology, 2017)

How the values were obtained:
[1] = Study-2 single-dose pharmacokinetics (plasma); type: in vivo, human; conditions: for AUC(0-t) / half-life / Cmax / Tmax / AUC / MRT / Vd/F: human, plasma, oral; for Vd/F: read-out: Vz/F
Source text: (§1) These were phase I, randomised, double-blind, placebo-controlled studies designed to evaluate the safety, tolerability, PK and PD profiles of seletalisib following oral administration of single ascending doses and multiple ascending doses. Study-1 was a first-in-human, double-blind (sponsor-, investigator- and subject-blind) study that had two parts: Part-A evaluated seletalisib (single ascending doses) in healthy adults (including evaluation of food effects; Table 1); Part-B evaluated seletalisib (multiple ascending doses) in healthy adults and subjects with mild-to-moderate psoriasis. Study-2 was also a double-blind study of seletalisib (single and multiple ascending doses) in healthy subjects, which investigated higher doses.
(§2) Plasma concentrations of seletalisib were measured by high-performance liquid chromatography with tandem mass spectrometry (see Online Resource S1 for further details). The following PK parameters were determined in each study: AUC for seletalisib, maximum observed plasma concentration of seletalisib after a single dose (Cmax) and at steady-state (Cmaxss), time of occurrence of Cmax (tmax, obtained directly from the observed plasma concentration-time curves), minimum observed plasma concentration of seletalisib at steady-state immediately before the next dose would be administered (Ctrough), apparent terminal half-life, apparent volume of distribution after single dosing (Vz/F) and at steady-state (Vzss/F) and apparent total body clearance after single dosing (CL/F) and at steady-state (CLss/F). Accumulation factor based on AUC(0–24) [R(AUC)] and accumulation factor based on Cmax [R(Cmax)] were determined on multiple dose day 14. The following study-specific PK parameters were also determined: Study-1, total amount of seletalisib excreted in urine (Ae), renal clearance (CLr) and fraction of drug excreted in urine; Study-2, AUC(0–10) in BID dose groups, terminal elimination rate constant in plasma (λz), mean residence time (MRT) and linearity factor (LF [AUC(0–24)ss/AUC]).
(§3) Methods for the calculation of seletalisib PK parameters are detailed in Online Resource S1.
(§4) Seletalisib PK parameters were calculated via non-compartmental analysis methods from the individual concentration-time data using Phoenix WinNonlin version 6.2 (Certara, Princeton, NJ, USA). Urine (Study-1 only) and plasma PK parameters of seletalisib were reported for each subject and summarised by study part and dose group. Geometric mean and percentage geometric coefficient of variation (GeoCV%) were reported for all parameters except for tmax, which was reported using median and range. Dose proportionality for AUC and Cmax at Day_1 (Study-1 [Part-A & Part-B]; Study-2, single ascending dose-Day_1) and at steady state at Day_14 (Study-1 [Part-B]; Study-2, multiple ascending dose-Day_14) was examined via the power model and reported graphically. In Study-1, an assessment of food effect (fed versus fasted) was made for Cmax and AUC from the data for subjects who received the same dose in fed and fasted states in Part-A.

[2] = Study-1 Part-A single ascending dose pharmacokinetics (plasma and urine); type: in vivo, human; conditions: for Fe: fraction excreted in urine; for AUC / AUC(0-t) / Cmax / Vd/F / half-life / Tmax / CL renal: human, oral; for AUC / AUC(0-t) / Cmax / Vd/F / half-life / Tmax: plasma; for Vd/F: read-out: Vz/F; for CL renal: urine and plasma; for Ae(0–t): urine
Source text: as §1, §2, §3, §4

[3] = system: basophil degranulation; experiment: Study-2 ex vivo basophil degranulation (anti-FcεR1-driven CD63 expression, whole blood); conditions: Study-2, single dose, by 4 h post-dose on day 1, range across groups
Experimental: (§5) Subjects were assessed for basophil degranulation following stimulation at multiple time points, as described in Online Resource S1.
(§6) Degranulation of basophils was determined in whole blood by monitoring increased cell surface CD63 expression utilizing flow cytometry in an ex vivo stimulation assay driven by anti-IgE (Study-1) or anti-FcεR1 (Study-2). Briefly, blood was collected in lithium-heparin tubes (BD Biosciences, Oxford, UK) and stimulated with IgE or FcεRI cross-linking antibodies (eBiosciences, Hatfield, UK) for 12 min at 37°C. Following red blood cell lysis by addition of BD FACSlyse (BD Biosciences, Oxford, UK), samples were centrifuged and the supernatant discarded. The cell pellet was washed in PBS and re-suspended in fixative (5% formaldehyde in PBS). CD63 expression was determined on basophils (side-scatter low, CD123+HLA-DR-) and detected by flow cytometry using the BD antibody cocktail containing CD63, CD123, and anti-HLA-DR.

[4] = system: basophil degranulation; experiment: Study-1 ex vivo basophil degranulation (anti-IgE-driven CD63 expression, whole blood); type: in vivo, human; conditions: Study-1 Part-A, single doses; very high variability
Experimental: as §5, §6

[5] = parameters: method as in ref 15 = [15]; 15. UCB data on file: UCB1446368-in vivo-rep; November 2011; UCB BioPharma sprl Belgium and DMPK10_062 UCB1446368 iv 1mpk male HW rat BDC; August 2010; UCB BioPharma sprl Belgium; conditions: preclinical animal studies; cited from earlier work
[6] = Study-2 single dose, 30 mg QD cohort, geo mean (GeoCV%)
[7] = Study-2 single dose, 45 mg QD cohort, geo mean (GeoCV%)
[8] = Study-2 single dose, 60 mg QD cohort, geo mean (GeoCV%)
[9] = Study-2 single dose, 90 mg QD cohort, geo mean (GeoCV%)
[10] = Study-1 Part-A, single dose 1 mg fasted, geo mean (GeoCV%)
[11] = Study-1 Part-A, single dose 5 mg fasted, geo mean (GeoCV%)
[12] = Study-1 Part-A, single dose 5 mg fed, geo mean (GeoCV%)
[13] = Study-1 Part-A, single dose 10 mg fasted, geo mean (GeoCV%)
[14] = Study-1 Part-A, single dose 15 mg fasted, geo mean (GeoCV%)
[15] = 1 mg, Study-1 Part-A, single dose 1 mg fasted, geo mean (GeoCV%)
[16] = 5 mg, Study-1 Part-A, single dose 5 mg fasted, geo mean (GeoCV%)
[17] = 5 mg, Study-1 Part-A, single dose 5 mg fed, geo mean (GeoCV%)
[18] = 10 mg, Study-1 Part-A, single dose 10 mg fasted, geo mean (GeoCV%)
[19] = 15 mg, Study-1 Part-A, single dose 15 mg fasted, geo mean (GeoCV%)

For `[O-][n+]1cccc(-c2nc3c(Cl)cccc3cc2[C@@H](Nc2ncnc3cccnc23)C(F)(F)F)c1` [Seletalisib, seletalisib], the CL/F [1, 6] was 2.65 (30.4) L/h, the CL/F [1, 7] was 2.61 (33.0) L/h and the CL/F [1, 8] was 2.19 (32.3) L/h. The CL/F [1, 9] was 2.58 (33.3) L/h, the AUC(0-t) ([1]; 30 mg, Study-2 single dose, 30 mg QD cohort, geo mean (GeoCV%), read-out: AUC(0–24)) was 6490 ng·h/mL and the AUC(0-t) ([1]; 30 mg, Study-2 single dose, 30 mg QD cohort, geo mean (GeoCV%), read-out: AUC(0–t)) was 10200 ng·h/mL. The AUC(0-t) ([1]; 30 mg, Study-2 single-dose part, 30 mg BID cohort, geo mean (GeoCV%), read-out: AUC(0–10)) was 3500 ng·h/mL, the AUC(0-t) ([1]; 45 mg, Study-2 single dose, 45 mg QD cohort, geo mean (GeoCV%), read-out: AUC(0–24)) was 9280 ng·h/mL and the AUC(0-t) ([1]; 45 mg, Study-2 single dose, 45 mg QD cohort, geo mean (GeoCV%), read-out: AUC(0–t)) was 15100 ng·h/mL. It also gave an AUC(0-t) ([1]; 60 mg, Study-2 single dose, 60 mg QD cohort, geo mean (GeoCV%), read-out: AUC(0–24)) of 16300 ng·h/mL, an AUC(0-t) ([1]; 60 mg, Study-2 single dose, 60 mg QD cohort, geo mean (GeoCV%), read-out: AUC(0–t)) of 25100 ng·h/mL and an AUC(0-t) ([1]; 90 mg, Study-2 single dose, 90 mg QD cohort, geo mean (GeoCV%), read-out: AUC(0–24)) of 19700 ng·h/mL. For the same compound, the AUC(0-t) ([1]; 90 mg, Study-2 single dose, 90 mg QD cohort, geo mean (GeoCV%), read-out: AUC(0–t)) was 31200 ng·h/mL, the half-life ([1]; Study-2, range across dose groups, read-out: geometric mean t1/2) was 18.1 to 22.4 h and the Cmax ([1]; Study-2, single dose, range across groups, read-out: geometric mean Cmax) was 517 to 1510 ng/mL. The Tmax ([1]; Study-2, single dose, range across groups, read-out: median tmax) was 3 to 4 h, the AUC [1, 6] was 11300 ng·h/mL and the MRT [1, 6] was 22.1 h. It also gave a Cmax ([1]; Study-2 single dose, 30 mg QD cohort, geo mean (GeoCV%), read-out: Cmax) of 517 ng/mL, a Vd/F [1, 6] of 74.4 L and a half-life ([1]; Study-2 single dose, 30 mg QD cohort, geo mean (GeoCV%), read-out: t1/2 (converted)) of 19.5 h. It also gave a Tmax ([1]; Study-2 single dose, 30 mg QD cohort, median (range), read-out: tmax) of 4 h, an AUC [1, 7] of 17300 ng·h/mL and an MRT [1, 7] of 23 h. It also gave a Cmax ([1]; Study-2 single dose, 45 mg QD cohort, geo mean (GeoCV%), read-out: Cmax) of 691 ng/mL, a Vd/F [1, 7] of 84.2 L and a half-life ([1]; Study-2 single dose, 45 mg QD cohort, geo mean (GeoCV%), read-out: t1/2 (converted)) of 22.4 h. For the same compound, the Tmax ([1]; Study-2 single dose, 45 mg QD cohort, median (range), read-out: tmax) was 4 h, the AUC [1, 8] was 27400 ng·h/mL and the MRT [1, 8] was 21.5 h. It also gave a Cmax ([1]; Study-2 single dose, 60 mg QD cohort, geo mean (GeoCV%), read-out: Cmax) of 1250 ng/mL, a Vd/F [1, 8] of 57.2 L and a half-life ([1]; Study-2 single dose, 60 mg QD cohort, geo mean (GeoCV%), read-out: t1/2 (converted)) of 18.1 h. It also gave a Tmax ([1]; Study-2 single dose, 60 mg QD cohort, median (range), read-out: tmax) of 3 h, an AUC [1, 9] of 34900 ng·h/mL and an MRT [1, 9] of 22.4 h. The Cmax ([1]; Study-2 single dose, 90 mg QD cohort, geo mean (GeoCV%), read-out: Cmax) was 1510 ng/mL, the Vd/F [1, 9] was 77.3 L and the half-life ([1]; Study-2 single dose, 90 mg QD cohort, geo mean (GeoCV%), read-out: t1/2 (converted)) was 20.8 h. For the same compound, the Tmax ([1]; Study-2 single dose, 90 mg QD cohort, median (range), read-out: tmax) was 4 h, the food effect ([2]; Study-1 Part-A, 5 mg fed (high-fat, high-calorie meal) vs fasted) was “No clinically significant food effect” and the “geometric mean fraction of drug excreted in urine” value ([2]; Study-1 Part-A, parent drug, across dose groups) was less than 6%. For the same compound, the CL/F [2, 10] was 1.93 (33.4) L/h, the CL/F [2, 11] was 2.19 (34.3) L/h and the CL/F [2, 12] was 1.87 (44.6) L/h. For the same compound, the CL/F [2, 13] was 1.93 (17.3) L/h, the CL/F [2, 14] was 1.93 (25.4) L/h and the Fe [2, 10] was 5.79 (56.6) %. The Fe [2, 11] was 5.37 (35.3) %, the Fe [2, 12] was 4.81 (49.6) % and the Fe [2, 13] was 4.76 (66.0) %. For the same compound, the Fe [2, 14] was 4.59 (33.6) %, the AUC [2, 15] was 518 ng·h/mL and the AUC(0-t) [2, 15] was 473 ng·h/mL. It also gave a Cmax [2, 15] of 26.7 ng/mL, a Vd/F [2, 15] of 51.5 L and a half-life ([2]; 1 mg, Study-1 Part-A, single dose 1 mg fasted, geo mean (GeoCV%), read-out: t1/2 (converted)) of 18.5 h. It also gave a Tmax ([2]; 1 mg, Study-1 Part-A, single dose 1 mg fasted, median (range), read-out: tmax) of 1.77 h, an AUC [2, 16] of 2290 ng·h/mL and an AUC(0-t) [2, 16] of 2100 ng·h/mL. The Cmax [2, 16] was 109 ng/mL, the Vd/F [2, 16] was 59.2 L and the half-life ([2]; 5 mg, Study-1 Part-A, single dose 5 mg fasted, geo mean (GeoCV%), read-out: t1/2 (converted)) was 18.8 h. It also gave a Tmax ([2]; 5 mg, Study-1 Part-A, single dose 5 mg fasted, median (range), read-out: tmax) of 2.01 h, an AUC [2, 17] of 2680 ng·h/mL and an AUC(0-t) [2, 17] of 2480 ng·h/mL. It also gave a Cmax [2, 17] of 105 ng/mL, a Vd/F [2, 17] of 47.6 L and a half-life ([2]; 5 mg, Study-1 Part-A, single dose 5 mg fed, geo mean (GeoCV%), read-out: t1/2 (converted)) of 17.7 h. The Tmax ([2]; 5 mg, Study-1 Part-A, single dose 5 mg fed, median (range), read-out: tmax) was 4 h, the AUC [2, 18] was 5170 ng·h/mL and the AUC(0-t) [2, 18] was 4800 ng·h/mL. For the same compound, the Cmax [2, 18] was 279 ng/mL, the Vd/F [2, 18] was 54 L and the half-life ([2]; 10 mg, Study-1 Part-A, single dose 10 mg fasted, geo mean (GeoCV%), read-out: t1/2 (converted)) was 19.4 h. It also gave a Tmax ([2]; 10 mg, Study-1 Part-A, single dose 10 mg fasted, median (range), read-out: tmax) of 1.77 h, an AUC [2, 19] of 7760 ng·h/mL and an AUC(0-t) [2, 19] of 7000 ng·h/mL. The Cmax [2, 19] was 313 ng/mL, the Vd/F [2, 19] was 58.7 L and the half-life ([2]; 15 mg, Study-1 Part-A, single dose 15 mg fasted, geo mean (GeoCV%), read-out: t1/2 (converted)) was 21.1 h. The Tmax ([2]; 15 mg, Study-1 Part-A, single dose 15 mg fasted, median (range), read-out: tmax) was 3 h, the half-life ([2]; Study-1, range across dose groups, read-out: geometric mean t1/2) was 17.7 to 21.1 h and the Tmax ([2]; Study-1 Part-A, single dose, range across fasted treatment groups, read-out: median tmax) was 1.8 to 3 h. The CL renal [2, 15] was 1.87 mL/min, the CL renal [2, 16] was 1.95 mL/min and the CL renal [2, 17] was 1.5 mL/min. For the same compound, the CL renal [2, 18] was 1.53 mL/min, the CL renal [2, 19] was 1.48 mL/min and the “Ae(0–t)” value [2, 10] was 0.058 (56.6) mg. For the same compound, the “Ae(0–t)” value [2, 11] was 0.269 (35.3) mg, the “Ae(0–t)” value [2, 12] was 0.241 (49.6) mg and the “Ae(0–t)” value [2, 13] was 0.476 (66.0) mg. The “Ae(0–t)” value [2, 14] was 0.689 (33.6) mg, the “inhibition of basophil degranulation” value [3] was 80.3–92.5% and the “inhibition of basophil degranulation compared with placebo” value [4] was “inhibition of basophil degranulation was observed in all seletalisib-treated groups”. The route of elimination [5] was “primarily eliminated by combined hepatic metabolism and biliary excretion”.
